Here are results for 20 compounds from paper PMC6273621, “Synthesis and the Biological Activity of Phosphonylated 1,2,3-Triazolenaphthalimide Conjugates” (Molecules, 2016).

Series [1] concerns human cervix carcinoma cells (HeLa). Briefly: Cytostatic activity, HeLa cell proliferation. In kind it is cell-based. The following applies: 72 h, read-out: IC50 HeLa. How it is done:
(§1) All assays were performed in 96-well microtiter plates. To each well were added (5–7.5) × 10^4 tumor cells and a given amount of the test compound. The cells were allowed to proliferate for 48 h (murine leukemia L1210 cells) or 72 h (human lymphocytic CEM and human cervix carcinoma HeLa cells) at 37 °C in a humidified CO2-controlled atmosphere. At the end of the incubation period, the cells were counted in a Coulter counter.

For series [2], the system named is murine leukemia (L1210) cells. Briefly: Cytostatic activity, L1210 cell proliferation. The following applies: Mus musculus, read-out: IC50 L1210. The format is cell-based. The protocol:
as §1

The subject of series [3] is human T-lymphocyte (CEM) cells. The series is described as follows: Cytostatic activity, CEM cell proliferation. In kind it is cell-based. The following applies: CCRF-CEM, 72 h, read-out: IC50 CEM. The protocol: as §1
The subject of series [4] is human dermal microvascular endothelial HMEC-1 cells. Briefly: Cytostatic activity, HMEC-1 cell proliferation. The format is cell-based.

Structures are written as SMILES. Read-outs that look alike come from different tables or passages of the source.

Consider `C#CCN1C(=O)c2cccc3cccc(c23)C1=O` [Compound 7, 2-(Prop-2-yn-1-yl)-1H-benzo[de]isoquinoline-1,3(2H)-dione], for which the melting point (as a rule, the temperature of the solid-liquid transition) is 239 to 240 °C. Also, the IC50 (in general, the point on the concentration scale where inhibition reaches its midpoint) in series [1] (cell proliferation) was 48 ± 8 µM. The IC50 in series [2] (L1210, cell proliferation, 48 h) was > 250 µM. In series [3] (cell proliferation), the IC50 was found to be 206 ± 42 µM. Further, in series [4] (HMEC-1, cell proliferation, read-out: IC50 HMEC-1), the IC50 was found to be 138 ± 38 µM.

For `CCOP(=O)(Cn1cc(CN2C(=O)c3cccc4cccc(c34)C2=O)nn1)OCC` [Compound 14a], the melting point lay in the range of 110 to 111 °C. Also, the IC50 in series [1] was > 250 µM. In series [2] (L1210, 48 h), the IC50 was > 250 µM. Besides, the IC50 in series [3] is 187 ± 25 µM. Further, in series [4] (HMEC-1, read-out: IC50 HMEC-1), the IC50 is > 250 µM.

Consider `CCOP(=O)(CCn1cc(CN2C(=O)c3cccc4cccc(c34)C2=O)nn1)OCC` [Compound 14b, Diethyl 2-{4-[(1,3-Dioxo-1H-benzo[de]isoquinolin-2(3H)-yl)methyl]-1H-1,2,3-triazol-1-yl}ethylphosphonate], for which the melting point lay in the range of 63 to 64 °C. In addition, the IC50 in series [1] was 204 ± 65 µM. Also, the 50% inhibitory concentration (IC50) in series [2] (L1210, 48 h) was > 250 µM. The IC50 in series [3] was found to be 148 ± 59 µM. Besides, the IC50 in series [4] (HMEC-1, read-out: IC50 HMEC-1) is > 250 µM.

Consider `CCOP(=O)(CC(O)Cn1cc(CN2C(=O)c3cccc4cccc(c34)C2=O)nn1)OCC` (stereo not shown) [Compound 14f, Diethyl 3-{4-[(1,3-Dioxo-1H-benzo[de]isoquinolin-2(3H)-yl)methyl]-1H-1,2,3-triazol-1-yl}-2-hydroxypropylphosphonate], for which the melting point is > 260 °C. Moreover, the IC50 in series [1] worked out at 168 ± 26 µM. In addition, in series [2] (L1210, 48 h), the concentration for half-maximal inhibition (IC50) is > 250 µM. For the same compound, the IC50 in series [3] was 158 ± 4 µM. Moreover, the 50% inhibitory concentration (IC50) in series [4] (HMEC-1, read-out: IC50 HMEC-1) is > 250 µM.

In the case of `CCOP(=O)(COCCn1cc(CN2C(=O)c3cccc4cccc(c34)C2=O)nn1)OCC` [Compound 14g, Diethyl 2-{4-[(1,3-Dioxo-1H-benzo[de]isoquinolin-2(3H)-yl)methyl]-1H-1,2,3-triazol-1-yl}ethoxy-methylphosphonate], the melting point is 154 to 155 °C. The IC50 in series [1] came to 215 ± 49 µM. Besides, in series [2] (L1210, 48 h), the IC50 was > 250 µM. Moreover, the IC50 in series [3] was found to be 168 ± 29 µM. In series [4] (HMEC-1, read-out: IC50 HMEC-1), the IC50 is ≥ 250 µM.

Compound `CCOP(=O)(CNC(=O)Cn1cc(CN2C(=O)c3cccc4cccc(c34)C2=O)nn1)OCC` [Compound 14i, Diethyl 2-{4-[(1,3-Dioxo-1H-benzo[de]isoquinolin-2(3H)-yl)methyl]-1H-1,2,3-triazol-1-yl}acetamido-methylphosphonate] showed a melting point of 170 to 171 °C. In addition, in series [1], the IC50 is > 250 µM. For the same compound, in series [2] (L1210, 48 h), the IC50 is > 250 µM. In series [3], the IC50 was ≥ 250 µM. In addition, in series [4] (HMEC-1, read-out: IC50 HMEC-1), the half-maximal inhibitory concentration (IC50) was > 250 µM.

In the case of `CCOP(=O)(Cn1cc(CN2C(=O)c3cccc4c(Br)ccc(c34)C2=O)nn1)OCC` [Compound 15a, Diethyl {4-[(6-Bromo-1,3-dioxo-1H-benzo[de]isoquinolin-2(3H)-yl)methyl]-1H-1,2,3-triazol-1-yl}methylphosphonate], the melting point is 158 to 159 °C. In addition, in series [1], the half-maximal inhibitory concentration (IC50) was found to be 88 ± 5 µM. In series [2] (L1210, 48 h), the IC50 was 28 ± 1 µM. For the same compound, the IC50 in series [3] is 60 ± 27 µM. Besides, the IC50 in series [4] (HMEC-1, read-out: IC50 HMEC-1) amounted to 185 ± 40 µM.

With `CCOP(=O)(CCCn1cc(CN2C(=O)c3cccc4c(Br)ccc(c34)C2=O)nn1)OCC` [Compound 15c, Diethyl 3-{4-[(6-Bromo-1,3-dioxo-1H-benzo[de]isoquinolin-2(3H)-yl)methyl]-1H-1,2,3-triazol-1-yl}propylphosphonate], the melting point fell in the range of 118 to 120 °C. Also, the half-inhibitory concentration (IC50) in series [1] was determined as 62 ± 1 µM. Moreover, in series [2] (L1210, 48 h), the IC50 worked out at 20 ± 3 µM. Moreover, the IC50 in series [3] worked out at 52 ± 34 µM. In addition, the IC50 in series [4] (HMEC-1, read-out: IC50 HMEC-1) came out at 152 µM.

In turn, `CCOP(=O)(OCC)C(O)Cn1cc(CN2C(=O)c3cccc4c(Br)ccc(c34)C2=O)nn1` (stereo not shown) [Compound 15e, Diethyl 2-{4-[(6-Bromo-1,3-dioxo-1H-benzo[de]isoquinolin-2(3H)-yl)methyl]-1H-1,2,3-triazol-1-yl}-1-hydroxyethylphosphonate] returned a melting point of 198 to 200 °C. Further, the 50% inhibitory concentration (IC50) in series [1] is > 250 µM. Moreover, the IC50 in series [2] (L1210, 48 h) was 42 ± 15 µM. The IC50 in series [3] turned out to be 196 ± 60 µM. Further, the IC50 in series [4] (HMEC-1, read-out: IC50 HMEC-1) was > 250 µM.

As to `CCOP(=O)(COCCn1cc(CN2C(=O)c3cccc4c(Br)ccc(c34)C2=O)nn1)OCC` [Compound 15g, Diethyl 2-{4-[(6-Bromo-1,3-dioxo-1H-benzo[de]isoquinolin-2(3H)-yl)methyl]-1H-1,2,3-triazol-1-yl}ethoxy-methylphosphonate], the IC50 in series [1] was found to be 84 ± 16 µM; in series [2] (L1210, 48 h), 24 ± 3 µM; in series [3], 66 ± 20 µM; in series [4] (HMEC-1, read-out: IC50 HMEC-1), 152 ± 1 µM.

In turn, `CCOP(=O)(CNC(=O)Cn1cc(CN2C(=O)c3cccc4c(Br)ccc(c34)C2=O)nn1)OCC` [Compound 15i, Diethyl 2-{4-[(6-Bromo-1,3-dioxo-1H-benzo[de]isoquinolin-2(3H)-yl)methyl]-1H-1,2,3-triazol-1-yl}acetamido-methylphosphonate] showed a melting point of 173 to 174 °C. Moreover, in series [1], the IC50 was > 250 µM. Besides, the IC50 in series [2] (L1210, 48 h) amounted to 31 ± 2 µM. In series [3], the IC50 was 137 ± 72 µM. In addition, the IC50 in series [4] (HMEC-1, read-out: IC50 HMEC-1) was > 250 µM.

Consider `CCOP(=O)(Cn1cc(CN2C(=O)c3cccc4cc(N)cc(c34)C2=O)nn1)OCC` [Compound 17a, Diethyl {4-[(5-Amino-1,3-dioxo-1H-benzo[de]isoquinolin-2(3H)-yl)methyl]-1H-1,2,3-triazol-1-yl}methylphosphonate], for which the IC50 in series [1] came out at 101 ± 78 µM; in series [2] (L1210, 48 h), 177 ± 76 µM; in series [3], 214 ± 5 µM.

Turning to `CCOP(=O)(CCn1cc(CN2C(=O)c3cccc4cc(N)cc(c34)C2=O)nn1)OCC` [Compound 17b, Diethyl 2-{4-[(5-Amino-1,3-dioxo-1H-benzo[de]isoquinolin-2(3H)-yl)methyl]-1H-1,2,3-triazol-1-yl}ethylphosphonate], the IC50 in series [1] was 69 ± 12 µM; in series [2] (L1210, 48 h), > 250 µM; in series [3], 120 ± 7 µM.

`CCOP(=O)(CCCn1cc(CN2C(=O)c3cccc4cc(N)cc(c34)C2=O)nn1)OCC` [Compound 17c, Diethyl 3-{4-[(5-Amino-1,3-dioxo-1H-benzo[de]isoquinolin-2(3H)-yl)methyl]-1H-1,2,3-triazol-1-yl}propylphosphonate] displayed a melting point of 180 to 182 °C. For the same compound, the IC50 in series [1] was ≥ 250 µM. The IC50 in series [2] (L1210, 48 h) is > 250 µM. Further, the IC50 in series [3] is ≥ 250 µM.

Regarding `CCOP(=O)(CCCCn1cc(CN2C(=O)c3cccc4cc(N)cc(c34)C2=O)nn1)OCC` [Compound 17d, Diethyl 4-{4-[(5-Amino-1,3-dioxo-1H-benzo[de]isoquinolin-2(3H)-yl)methyl]-1H-1,2,3-triazol-1-yl}butylphosphonate], the melting point was in the range of 218 to 220 °C. For the same compound, in series [1], the IC50 was 116 ± 60 µM. For the same compound, the IC50 in series [2] (L1210, 48 h) was > 250 µM. The IC50 in series [3] was > 250 µM.

For `CCOP(=O)(OCC)C(O)Cn1cc(CN2C(=O)c3cccc4cc(N)cc(c34)C2=O)nn1` (stereo not shown) [Compound 17e, Diethyl 2-{4-[(5-Amino-1,3-dioxo-1H-benzo[de]isoquinolin-2(3H)-yl)methyl]-1H-1,2,3-triazol-1-yl}-1-hydroxyethylphosphonate], the melting point fell in the range of 170 to 172 °C. Besides, the IC50 in series [1] was 72 ± 58 µM. Besides, the IC50 in series [2] (L1210, 48 h) was > 250 µM. Also, the IC50 in series [3] is > 250 µM.

The compound `CCOP(=O)(CC(O)Cn1cc(CN2C(=O)c3cccc4cc(N)cc(c34)C2=O)nn1)OCC` (stereo not shown) [Compound 17f, Diethyl 3-{4-[(5-Amino-1,3-dioxo-1H-benzo[de]isoquinolin-2(3H)-yl)methyl]-1H-1,2,3-triazol-1-yl}-2-hydroxypropylphosphonate] gave a melting point of 222 to 224 °C. The IC50 in series [1] is 130 ± 77 µM. Besides, the IC50 in series [2] (L1210, 48 h) is > 250 µM. The IC50 in series [3] is > 250 µM.

Compound `CCOP(=O)(COCCn1cc(CN2C(=O)c3cccc4cc(N)cc(c34)C2=O)nn1)OCC` [Compound 17g, Diethyl 2-{4-[(5-Amino-1,3-dioxo-1H-benzo[de]isoquinolin-2(3H)-yl)methyl]-1H-1,2,3-triazol-1-yl}ethoxy-methylphosphonate] gave a melting point of 221 to 223 °C. The IC50 in series [1] amounted to 97 ± 42 µM. For the same compound, in series [2] (L1210, 48 h), the IC50 was > 250 µM. The IC50 in series [3] is > 250 µM.

Take `CCOP(=O)(CCOCCn1cc(CN2C(=O)c3cccc4cc(N)cc(c34)C2=O)nn1)OCC` [Compound 17h, Diethyl 2-(2-{4-[(5-Amino-1,3-dioxo-1H-benzo[de]isoquinolin-2(3H)-yl)methyl]-1H-1,2,3-triazol-1-yl}ethoxy)ethylphosphonate]: the melting point is 180 to 183 °C. The IC50 in series [1] was found to be 66 ± 3 µM. Moreover, in series [2] (L1210, 48 h), the IC50 stood at 142 ± 2 µM. Moreover, the concentration for half-maximal inhibition (IC50) in series [3] was determined as 109 ± 3 µM.

The compound `CCOP(=O)(CNC(=O)Cn1cc(CN2C(=O)c3cccc4cc(N)cc(c34)C2=O)nn1)OCC` [Compound 17i, Diethyl 2-{4-[(5-Amino-1,3-dioxo-1H-benzo[de]isoquinolin-2(3H)-yl)methyl]-1H-1,2,3-triazol-1-yl}acetamido-methylphosphonate] registered a melting point of 222 to 224 °C. Also, in series [1], the IC50 was 112 ± 58 µM. The IC50 in series [2] (L1210, 48 h) was > 250 µM. Further, the IC50 in series [3] was > 250 µM.
